Results reported in patent US11800869B2, “Use of 6-oxo-1,4,5,6-tetrahydropyridazine-3-carboxylic acid, 1-methyl 6-oxo-1,4,5,6-tetrahydropyridazine-3-carboxylic acid and 1-alkyl-6-oxo-1,4,5,6-tetrahydropyridazine-3-carboxylic acid for improving growth performance in plants” (Advanced Crop Chem LLP, priority 2020, dated 2023).

Tested on: Field grown wheat plants (Var: AWC 13)
Experiment: Foliar treatment of field grown wheat (Example 6)
Type: in vivo
Details: foliar treatment at Zadoks GS 25-26, 100 g in 200 L water, mean of 10 plants
Method: Field grown wheat plants (Var: AWC 13) were given foliar treatment at Zadoks GS 25-26 (FIG. 1) of 6-oxo-1,4,5,6 tetrahydropyridazine-3-carboxylic acid (THP) or 1-methyl 6-oxo-1,4,5,6 tetrahydropyridazine-3-carboxylic acid (MTHP) both at 100 g in 200 L water plus 0.25% Nouryon wetter. Plants were grown under standard UK wheat growing cultural practice (https://andb.org.uk/wheatgg). Yield was assessed at harvest.

Compound: O=C1CCC(C(=O)O)=NN1 [THP, 6-oxo-1,4,5,6 tetrahydropyridazine-3-carboxylic acid]
- Dry Weight Shoot (Con 0.47): 1.01
- Dry Weight Root (Con 0.65): 1.5
